Like-named read-outs stand apart in the source and are kept apart here.
Assays:
[1] = target: T1, human dopamine D2 receptor (Homo sapiens, UniProt P14416); assay: Stimulating activities of human dopamine D2 receptor, [35S]GTPγS binding to hD2R#7 (HEK293) membrane homogenates; type: biochemical
T1 construct: expressed in transfected cells
Experimental: Identification Test of Stimulating Activities on Human Dopamine D2 Receptor
The cells, which were grown to confluence in 150 mm dishes (IWAKI), were harvested with isotonic buffer (50 mM Tris (Sigma), 2 mM ethylenediamine-tetraacetic acid (Invitrogen), and 125 mM sodium chloride (Wako Pure Chemicals), pH 7.4) and centrifuged at 1880×g and 4° C. for 10 minutes, and the cell pellets were then suspended in isotonic buffer. After being subjected to one cycle of freezing and thawing, the cells were centrifuged at 1880×g and 4° C. for 10 minutes, and the cell pellets were suspended in isotonic buffer. The cells were centrifuged at 1880×g and 4° C. for 10 minutes, and the cell pellets were suspended in isotonic buffer and homogenate buffer (10 mM sodium bicarbonate (Nacalai) and 5 mM ethylenediamine-tetraacetic acid, pH 7.5). The volume ratio of isotonic-to-homogenate buffer was 2. The cells were sonicated and centrifuged at 1880×g and 4° C. for 10 minutes, and the supernatants were ultracentrifuged at 80000×g and 4° C. for 30 minutes. The final cell pellets were suspended in homogenate buffer containing protease inhibitor cocktail (Nacalai) and stored at −80° C. until use. The protein concentration was determined using BCA Protein Assay Kit (Pierce) in accordance with the manufacturer's instructions.
The stimulating activities of human dopamine D2 receptor was determined by measuring the binding potential of [^35S]-guanosine 5′-[gamma-thio]triphosphate ([^35S]GTPγS, PerkinElmer) according to the method described by Newman-Tancredi A. et al. (Naunyn-Schmiedeberg's Arch Pharmacol, 1999, vol. 359, pp. 447-453) with a minor modification. Test compounds and dopamine hydrochloride (Fluka) as positive control were dissolved in dimethyl sulfoxide (CARLBIOCHEM), resulting in 30 mM. The both compounds were diluted with assay buffer (50 mM Tris, 100 mM sodium chloride, 5 mM magnesium chloride (Nacalai), 1 mM ethylenediamine-tetraacetic acid, 1 mM dithiothreitol (Wako Pure Chemicals), 10 μM guanosine diphosphate (Wako Pure Chemicals) and 0.5% bovine serum albumin (Sigma), pH 7.4) to a final concentration of 100 pM (only test compounds), 1 nM, 10 nM, 100 nM, 1 μM, 10 μM and 100 μM (only dopamine hydrochloride). The above membrane homogenates and [^35S]GTPγS were diluted with assay buffer to a final concentration of 0.06 mg/mL and 0.6 nM, respectively. The serial diluted compounds (50 μL), the diluted membrane homogenates (50 μL) and the diluted [^35S]GTPγS (50 μL) were mixed on multi-screen 96-well plate (Millipore) and shaken lightly at room temperature for 60 minutes. The reaction was terminated by vacuum filtration with three times washes of ice-cold wash buffer (50 mM Tris, 100 mM sodium chloride, 5 mM magnesium chloride, and 1 mM ethylenediamine-tetraacetic acid, pH 7.4). After drying the bottoms of the plate at 60° C., MicroScinti-40 (PerkinElmer) (30 μL) was added in the plate. The tops of the plate were sealed by TopSeal-A (PerkinElmer), and the radioactivity was determined in a TopCount NXT (registered mark)(PerkinElmer) after shaking lightly for 5-10 minutes. The data was analyzed by nonlinear regression and sigmoidal dose-response curve fitting using GraphPad PRISM 4.0 (GraphPad Software), and values of EC50 (concentration of the compound producing half the maximal effect of the compound) were calculated. The data was presented as mean value (n=2).

[2] = target: T2, human serotonin 5-HT2B receptor (Homo sapiens, UniProt P41595); assay: Stimulating activities of human serotonin 5-HT2B receptor, intracellular calcium in forced expression HEK293 cells; type: cell-based; conditions: intracellular calcium concentration, mean value (n=2)
T2 construct: expressed in transfected cells; host or cells: HEK293 (transient transfection)
Experimental: Identification Test of Stimulating Activities on Human Serotonin 5-HT2B Receptor
Mostly confluent HEK293 cells were washed with PBS, followed by exfoliation with 0.05% trypsin-EDTA and the cells were suspended in D-MEM liquid medium (phenol red-free, low glucose, pyruvic acid were contained) containing fetal bovine serum (final concentration: 10%) and GlutaMax (registered mark) I (final concentration: 2 mM). The suspension was scattered at 5×10^4 cells/100 μL/well on poly-D-lysine-coated 96-well microplate (BD BioCoat (registered mark)). The scattered cells were cultured in 5% CO2 incubator at 37° C. Human serotonin 5-HT2B receptor expression plasmid was transfected in that cells according to the procedure seeing below.
Human serotonin 5-HT2B receptor expression plasmid and Lipofectamine (registered mark) 2000 (Invitrogen) were diluted to 0.008 g/L and 0.016 g/L each other with OPTI-MEM (registered mark) I Reduced-Serum Medium and incubated at room temperature. After incubation, the human serotonin 5-HT2B receptor expression plasmid-diluted liquid and Lipofectamine (registered mark) 2000-diluted liquid were mixed at an equal volume and incubated at room temperature to form a complex. The complex was dispensed at 50 μL/well on the cells prepared above. The cells were incubated in 5% CO2 incubator at 37° C. for 2 days. After incubation, the cells were used as human serotonin 5-HT2B receptor forced expression cells for measurement of intracellular calcium concentration.
The stimulating activities of human serotonin 5-HT2B receptor was determined by measuring of intracellular calcium concentration. The 30 mM dimethyl sulfoxide (DMSO) solution contained test compounds or serotonin hydrochloride (Sigma) as positive control, was diluted with assay buffer ((HBSS), 20 mM HEPES, 1.3 mM calcium chloride, 0.5 mM magnesium chloride and 0.4 mM magnesium sulfate were contained, pH7.4) to appropriate concentration.
The forced expression cells were washed with assay buffer, and 100 μL/well of fluorescent calcium indicator (Fluo-4 NW Calcium Assay Kit) was added and incubated in 5% CO2 incubator at 37° C. After incubation, 50 μL/well of each test compound was added, and the concentration of intracellular calcium was measured as fluorescent signal with FlexStation (registered mark) II (Molecular Devices). The data was analyzed by nonlinear regression and sigmoidal dose-response curve fitting using GraphPad PRISM 4.0, and values of EC50 (concentration of the compound producing half the maximal effect of the compound) were calculated. The data was presented as mean value (n=2).

[3] = system: unilateral 6-hydroxydopamine-lesioned hemi-Parkisonian rats; assay: Contralateral rotational behavior in unilateral 6-hydroxydopamine-lesioned hemi-parkinsonian rats; type: in vivo, rat; conditions: orally 10 mg/kg, mean value; for Total number of rotations: contralateral rotations up to 24 hours after administration; for Duration: measured up to 24 hours after administration, duration of rotational response
Experimental: 6-OHDA was dissolved at 2 mg/mL in a physiolosical saline solution containing 0.2% L-ascorbic acid. Desipramine was dissolved at 10 mg/mL in a physiolosical saline solution in a hot-water bath. Apomorphine was dissolved at 0.1 mg/mL in a physiolosical saline solution. Ropinirole was dissolved in distilled water. Test compounds were dissolved in a solution containing 2% DMA, 100 or 200 mol % hydrochloric acid, and 98% of a 0.5% methyl cellulose solution. […] (Eur J Pharmacol, 2000, vol. 408, P. 249-255) with a minor modification. Male Sprague-Dawley rats (6-weeks-old, Charles River Laboratories Japan Inc.) were anaesthetized with intraperitoneal somnopentyl (45 mg/kg) injection and placed in a stereotaxic frame (Narishige). In order to prevent 6-OHDA-induced damage of noradrenergic neurons, desipramine (25 mg/kg) was intraperitoneally injected 30 minutes before the 6-OHDA injection. After the bregma identification via a middle calvarial incision, the skull was drilled using a dental drill at the site of 6-OHDA injection. The lesion was made by injecting 6-OHDA (8 μg in 4 μL at a speed of 1 μL/minute) unilaterally into the left medial forebrain bundle by using a injection cannula (30 gauge needle) connected to a microsyringe (Hamilton) (the lesion coordinates; A/P −2.5 mm, L/M −1.8 mm, and V/D −8.0 mm, from the bregma point and surface of the skull). The cannula was carefully removed from the animal after keeping placed on the lesion site for 5 minutes. The skull was filled its hole with dental cement, disinfected, and the scalp incision was surgically sutured. Animals recovered from anesthesia were housed as usual until the day of the experiment. Three weeks after the lesion, rats were tested on the basis of their contralateral rotational behavior (single rotation was defined as a 360° turn) in response to 0.1 mg/kg apomorphine given subcutaneously. For behavioral observation, rats were placed in plastic cylinders of a diameter of 30 cm, and its contralateral rotational behaviors were videotaped and quantified by rat-rotation auto counting system R-RACS (Kissei Wellcom). On the experimental day, animals were fasted overnight, and test compounds were orally administrated at doses of 10 mg/kg. The drug potency was measured until up to 24 hours after administration as the number of contralateral rotation. […] Total number of rotations and the duration of the response in experimental period were presented as mean value. As comparative example, ropinirole as non-ergot dopamine D2 receptor agonist, was examined in a similar fashion.

[4] = [35S]GTPγS binding, membrane homogenates, mean value (n=2), read-out: EC50

T2 sequence (P41595 whole entry): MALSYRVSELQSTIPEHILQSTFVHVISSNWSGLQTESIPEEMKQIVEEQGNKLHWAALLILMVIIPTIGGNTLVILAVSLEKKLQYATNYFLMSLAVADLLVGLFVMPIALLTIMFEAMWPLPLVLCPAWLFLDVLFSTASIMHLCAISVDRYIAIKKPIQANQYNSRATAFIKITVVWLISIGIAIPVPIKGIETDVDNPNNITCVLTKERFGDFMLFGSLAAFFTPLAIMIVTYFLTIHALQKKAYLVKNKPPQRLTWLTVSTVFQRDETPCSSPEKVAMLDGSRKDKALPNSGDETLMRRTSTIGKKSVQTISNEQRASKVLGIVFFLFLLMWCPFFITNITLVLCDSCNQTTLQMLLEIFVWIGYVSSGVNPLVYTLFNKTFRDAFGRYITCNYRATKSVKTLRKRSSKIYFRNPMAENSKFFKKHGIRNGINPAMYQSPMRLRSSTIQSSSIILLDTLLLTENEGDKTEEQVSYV
T1 sequence (P14416 whole entry): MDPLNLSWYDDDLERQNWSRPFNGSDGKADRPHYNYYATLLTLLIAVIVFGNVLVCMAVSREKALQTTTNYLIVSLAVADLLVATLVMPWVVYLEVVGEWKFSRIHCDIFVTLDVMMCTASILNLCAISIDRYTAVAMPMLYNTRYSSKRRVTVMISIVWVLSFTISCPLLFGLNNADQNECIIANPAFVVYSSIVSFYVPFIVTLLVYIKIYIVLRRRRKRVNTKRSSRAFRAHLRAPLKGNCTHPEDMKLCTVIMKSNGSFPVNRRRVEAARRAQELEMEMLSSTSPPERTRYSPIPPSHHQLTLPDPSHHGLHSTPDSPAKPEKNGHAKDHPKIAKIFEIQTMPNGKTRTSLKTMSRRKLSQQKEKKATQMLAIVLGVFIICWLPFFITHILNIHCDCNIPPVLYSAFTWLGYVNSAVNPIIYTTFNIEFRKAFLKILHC

Row | Structure (SMILES) | EC50 [1, 4] | EC50 [2] | Total number of rotations [3] | Duration [3] | EC50 [1]
1 | CCCN1C[C@@H](NC(=O)N(C)CCc2ccccc2)C[C@@H]2Cc3nc(N)ncc3C[C@H]21 (relative stereo) [Compound 1-11] | 19 nM | > 10000 nM |  |  | 
2 | CCCN1C[C@@H](NC(=O)N(C)CCOC)C[C@@H]2Cc3nc(N)ncc3C[C@H]21 (relative stereo) [Compound 1-12] | 43 nM | > 10000 nM |  |  | 
3 | CCCN1C[C@@H](NC(=O)NC)C[C@@H]2Cc3nc(N)ncc3C[C@H]21 (relative stereo) [Compound 1-13] | 161 nM | > 10000 nM |  |  | 
4 | CCCN1C[C@@H](NC(=O)N(C)C2CC2)C[C@@H]2Cc3nc(N)ncc3C[C@H]21 (relative stereo) [Compound 1-16] | 93 nM | > 10000 nM |  |  | 
5 | CCCN1C[C@@H](NC(=O)N(CCc2ccccc2)CCN(C)C)C[C@@H]2Cc3nc(N)ncc3C[C@H]21 (relative stereo) [Compound 1-23, 3-[(5aR*,8S*,9aR*)-2-amino-6-propyl-5,5a,6,7,8,9,9a,10-octahydropyrido[2,3-g]quinazolin-8-yl]-1-[2-(dimethylamino)ethyl]-1-(2-phenylethyl)urea] | 223 nM | > 10000 nM | 9184.0 | 870.0 minuets | 
6 | CCCN1C[C@@H](NC(=O)N(CC)CCN2CCCCC2)C[C@@H]2Cc3nc(N)ncc3C[C@H]21 (relative stereo) [Compound 1-25, 3-[(5aR*,8S*,9aR*)-2-amino-6-propyl-5,5a,6,7,8,9,9a,10-octahydropyrido[2,3-g]quinazolin-8-yl]-1-ethyl-1-[2-(piperidin-1-yl)ethylurea] | 126 nM | > 10000 nM | 5025.0 | 621.3 minuets | 
7 | CCCN1C[C@@H](NC(=O)N(CC)CCN2CCc3ccccc3C2)C[C@@H]2Cc3nc(N)ncc3C[C@H]21 (relative stereo) [Compound 1-33] | 93 nM | > 10000 nM |  |  | 
8 | CCCN1C[C@@H](NC(=O)N2CCCCC2)C[C@@H]2Cc3nc(N)ncc3C[C@H]21 (relative stereo) [Compound 1-34] | 63 nM | > 10000 nM |  |  | 
9 | CCCN1C[C@@H](NC(=O)N(C)CCc2ccncc2)C[C@@H]2Cc3nc(N)ncc3C[C@H]21 (relative stereo) [Compound 1-36] | 34 nM | > 10000 nM |  |  | 
10 | CCCN1C[C@@H](NC(=O)N2CCc3ccccc3C2)C[C@@H]2Cc3nc(N)ncc3C[C@H]21 (relative stereo) [Compound 1-37] | 10 nM | > 10000 nM |  |  | 
11 | CCCN1C[C@@H](NC(=O)N(C)CCN(C)c2ccccc2)C[C@@H]2Cc3nc(N)ncc3C[C@H]21 (relative stereo) [Compound 1-39] | 39 nM | > 10000 nM |  |  | 
12 | CCCN1C[C@@H](NC(=O)N(CC)CCN(C)CCOC)C[C@@H]2Cc3nc(N)ncc3C[C@H]21 (relative stereo) [Compound 1-41] | 116 nM | > 10000 nM |  |  | 
13 | CCCN1C[C@@H](CO)C[C@@H]2Cc3nc(N)ncc3C[C@H]21 (relative stereo) [compound 1, [(5aR*,8S*,9aR*)-2-amino-6-propyl-5,5a,6,7,8,9,9a,10-octahydropyrido[2,3-g]quinazolin-8-yl]methanol, reference compound] | 2900 nM |  |  |  | 
14 | CCCN1C[C@@H](NC(=O)N(CC)CCN(C)C)C[C@@H]2Cc3nc(N)ncc3C[C@H]21 [Compound 1-1, 3-[(5aR,8S,9aR)-2-Amino-6-propyl-5,5a,6,7,8,9,9a,10-octahydropyrido[2,3-g]quinazolin-8-yl]-1-[2-(dimethylamino)ethyl]-1-ethylurea] | 64 nM | > 10000 nM | 5038.5 | 541.3 minuets | 
15 | CCCN1C[C@@H](NC(=O)N(CCN(C)C)CC(C)C)C[C@@H]2Cc3nc(N)ncc3C[C@H]21 [Compound 1-3, 3-[(5aR,8S,9aR)-2-amino-6-propyl-5,5a,6,7,8,9,9a,10-octahydropyrido[2,3-g]quinazolin-8-yl]-1-[2-(dimethylamino)ethyl]-1-(2-methylpropyl)urea] |  |  | 3610.5 | 387.5 minuets | 
16 | CCCN1C[C@@H](NC(=O)N(C)C)C[C@@H]2Cc3nc(N)ncc3C[C@H]21 [Compound 1-5] |  |  |  |  | 9 nM
17 | CCCN(CCC)CCc1cccc2c1CC(=O)N2 [Ropinirole, ropinirole, reference compound] |  |  | 276.3 | 61.3 minuets | 

Source: patent US9585885B2, “Substituted pyrido[2,3-g]quinazolines as dopamine D2 receptor agonists” (KISSEI PHARMACEUTICAL CO., LTD., priority 2012, dated 2017)
